Assay results published in patent US12391737B2, “Soluble NPY2 receptor agonists” (Boehringer Ingelheim International GmbH, priority 2020, dated 2025).
pKi: −log10 of the molar value. *1 amine or outer side, *2 acyl side, *3 side chain or, on linkers, in order; H or OH if unused. Where a SMILES comes first, the peptide text is derived from it. Side-chain parts run from the residue outwards. The star is where a group is joined. C18 diacid = O=C(O)CCCCCCCCCCCCCCCCC(=O)*; γGlu = O=C(O)[C@H](CCC(=O)[*:2])N[*:1]; Isovaleryl = CC(C)CC(=O)*; Ahx = NCCCCCC(=O)O

Key:
[1] = Solubility determination; conditions: for Sol6: pH 6; for Sol7: pH 7
Method in brief: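 Shake-flask style: 10 mg/ml peptide (TFA salt), 0.1 M sodium diphosphate pH 6.4/7.0, 600 rpm, 2 h, RT; filter; dilute 1 mg/ml in 50% MeCN; RP-UPLC, 0–100% B over 2 min, 50 °C. Solubility = sample/control area ratio. Final pH recorded.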

[2] = molecular target: T1, Human Neuropeptide Y2 Receptor (Homo sapiens, UniProt P49146); assay: Radioligand binding competition assay (RLB); conditions: Table 3, 125I-PYY(1-36) competition; read-out: Ki
T1 construct: purchased CHEMICON HTS066M
T1 sequence (P49146 1-381): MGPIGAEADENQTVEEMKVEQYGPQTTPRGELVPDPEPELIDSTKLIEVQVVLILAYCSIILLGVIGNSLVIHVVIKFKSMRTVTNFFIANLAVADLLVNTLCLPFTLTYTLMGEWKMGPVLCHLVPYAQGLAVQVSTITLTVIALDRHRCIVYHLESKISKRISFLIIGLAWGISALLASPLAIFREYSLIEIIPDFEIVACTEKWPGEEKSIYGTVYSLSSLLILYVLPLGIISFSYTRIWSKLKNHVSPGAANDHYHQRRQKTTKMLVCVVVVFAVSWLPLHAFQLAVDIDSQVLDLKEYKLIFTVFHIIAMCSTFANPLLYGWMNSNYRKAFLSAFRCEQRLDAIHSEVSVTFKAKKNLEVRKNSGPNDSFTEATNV
Method in brief: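 Peptides were serially diluted from 1 mM DMSO stocks and competed for radioligand binding to receptor membranes (0.5 μg/well) over 2 h at room temperature, pH 7.4 HEPES buffer. Bound radioactivity on filters was counted by scintillation, and IC50 was derived by nonlinear regression.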

Sol6 [1] [mg/mL] | Sol7 [1] [mg/mL] | pKi [2] | SMILES
0.0 | 9.0 | 9.24 | CC[C@H](C)[C@H](NC(=O)[C@H](CCC(=O)O)NC(=O)[C@H](CCC(=O)O)NC(=O)[C@@H]1CCCN1C(=O)[C@H](CO)NC(=O)[C@H](C)NC(=O)[C@H](CC(=O)O)NC(=O)[C@H](CCC(=O)O)NC(=O)[C@@H]1CCCN1C(=O)[C@@H]1CCCN1C(=O)[C@H](CCCCNC(=O)CCCCCNC(=O)CC[C@H](NC(=O)CCCCCCCCCCCCCCCCC(=O)O)C(=O)O)NC(=O)[C@H](C)NC(=O)[C@@H]1CCCN1C(=O)[C@H](C)NC(=O)CC(C)C)C(=O)N[C@@H](CCC(N)=O)C(=O)N[C@@H](CCCNC(=N)N)C(=O)N[C@@H](Cc1ccc(O)cc1)C(=O)N[C@@H](Cc1ccc(O)cc1)C(=O)N[C@H](C(=O)N[C@@H](CO)C(=O)N[C@@H](CC(C)C)C(=O)N[C@@H](CCCNC(=N)N)C(=O)N[C@@H](Cc1c[nH]cn1)C(=O)N[C@@H](Cc1ccc(O)cc1)C(=O)N[C@@H](Cc1ccc(O)cc1)C(=O)N[C@@H](CC(N)=O)C(=O)N[C@@H](Cc1c[nH]c2ccccc12)C(=O)N[C@@H](CC(C)C)C(=O)N[C@H](C(=O)N[C@@H](CCCNC(=N)N)C(=O)N[C@@H](CCC(N)=O)C(=O)N[C@@H](CCCNC(=N)N)C(=O)N[C@@H](Cc1ccc(O)cc1)C(N)=O)[C@@H](C)O)C(C)C [Compound 82, N{alpha-4}-(3-methylbutanoyl)-N{epsilon-7}-(6-[(4S)-4-carboxy-4-(17-carboxyheptadecanamido)butanamido]hexanoyl)-[4A,6A,7K,9P,17I,18Q,22V,28Y,30W,31L]-hPYY(4-36)]
0.0 | 0.0 | 8.67 | CC[C@H](C)[C@H](NC(=O)[C@H](CCC(=O)O)NC(=O)[C@H](CCC(=O)O)NC(=O)[C@@H]1CCCN1C(=O)[C@H](CCC(=O)O)NC(=O)[C@H](C)NC(=O)[C@H](C)NC(=O)[C@H](C)NC(=O)[C@H](CCC(=O)O)NC(=O)[C@@H]1CCCN1C(=O)[C@H](CCCCNC(=O)CCCCCNC(=O)CC[C@H](NC(=O)CCCCCCCCCCCCCCCCC(=O)O)C(=O)O)NC(=O)[C@H](C)NC(=O)[C@@H]1CCCN1C(=O)[C@H](C)NC(=O)CC(C)C)C(=O)N[C@@H](CCC(N)=O)C(=O)N[C@@H](CCCNC(=N)N)C(=O)N[C@@H](Cc1ccc(O)cc1)C(=O)N[C@@H](Cc1ccc(O)cc1)C(=O)N[C@H](C(=O)N[C@@H](CO)C(=O)N[C@@H](CC(C)C)C(=O)N[C@@H](CCCNC(=N)N)C(=O)N[C@@H](Cc1c[nH]cn1)C(=O)N[C@@H](Cc1ccc(O)cc1)C(=O)N[C@@H](Cc1ccc(O)cc1)C(=O)N[C@@H](CC(N)=O)C(=O)N[C@@H](Cc1c[nH]c2ccccc12)C(=O)N[C@@H](CC(C)C)C(=O)N[C@H](C(=O)N[C@@H](CCCNC(=N)N)C(=O)N[C@@H](CCC(N)=O)C(=O)N[C@@H](CCCNC(=N)N)C(=O)N[C@@H](Cc1ccc(O)cc1)C(N)=O)[C@@H](C)O)C(C)C [Compound 111, N{alpha-4}-(3-methylbutanoyl)-N{epsilon-7}-(6-[(4S)-4-carboxy-4-(17-carboxyheptadecanamido)butanamido]hexanoyl)-[4A,6A,7K,9E,10A,11A,13E,17I,18Q,22V,28Y,30W,31L]-hPYY(4-36)] (Isovaleryl-APAK([Ahx-γGlu-C18 diacid])PEAAAEPEEIQRYYVSLRHYYNWLTRQRY-NH2)

Further lines, the molecule ahead of its results:

SMILES | Sol6 [1] [mg/mL] | Sol7 [1] [mg/mL] | pKi [2]
CC(C)CC(=O)N[C@@H](C)C(=O)N1CCC[C@H]1C(=O)N[C@@H](C)C(=O)N[C@@H](CCCCNC(=O)CCCCCNC(=O)CC[C@H](NC(=O)CCCCCCCCCCCCCCCCC(=O)O)C(=O)O)C(=O)N1CCC[C@H]1C(=O)N[C@@H](CCC(=O)O)C(=O)N[C@@H](C)C(=O)N[C@@H](C)C(=O)N[C@@H](C)C(=O)N[C@@H](CCC(=O)O)C(=O)N1CCC[C@H]1C(=O)N[C@@H](CCC(=O)O)C(=O)N[C@@H](CCC(=O)O)C(=O)N[C@@H](CC(C)C)C(=O)N[C@@H](CCC(N)=O)C(=O)N[C@@H](CCCNC(=N)N)C(=O)N[C@@H](Cc1ccc(O)cc1)C(=O)N[C@@H](Cc1ccc(O)cc1)C(=O)N[C@H](C(=O)N[C@@H](CO)C(=O)N[C@@H](CC(C)C)C(=O)N[C@@H](CCCNC(=N)N)C(=O)N[C@@H](Cc1c[nH]cn1)C(=O)N[C@@H](Cc1ccc(O)cc1)C(=O)N[C@@H](Cc1ccc(O)cc1)C(=O)N[C@@H](CC(N)=O)C(=O)N[C@@H](Cc1c[nH]c2ccccc12)C(=O)N[C@@H](CC(C)C)C(=O)N[C@H](C(=O)N[C@@H](CCCNC(=N)N)C(=O)N[C@@H](CCC(N)=O)C(=O)N[C@@H](CCCNC(=N)N)C(=O)N[C@@H](Cc1ccc(O)cc1)C(N)=O)[C@@H](C)O)C(C)C [Compound 43, N{alpha-4}-(3-methylbutanoyl)-N{epsilon-7}-(6-[(4S)-4-carboxy-4-(17-carboxyheptadecanamido)butanamido]hexanoyl)[4A,6A,7K,9E,10A,11A,13E,18Q,22V,28Y,30W,31L]-hPYY(4-36)] (Isovaleryl-APAK([Ahx-γGlu-C18 diacid])PEAAAEPEELQRYYVSLRHYYNWLTRQRY-NH2) | 0.0 | 0.0 | 8.60
CC(C)CC(=O)N[C@@H](C)C(=O)N1CCC[C@H]1C(=O)N[C@@H](C)C(=O)N[C@@H](CCCCNC(=O)CCCCCNC(=O)CC[C@H](NC(=O)CCCCCCCCCCCCCCCCC(=O)O)C(=O)O)C(=O)N1CCC[C@H]1C(=O)N[C@@H](CCC(=O)O)C(=O)N[C@@H](CCC(=O)O)C(=O)N[C@@H](CC(=O)O)C(=O)N[C@@H](C)C(=O)N[C@@H](CO)C(=O)N1CCC[C@H]1C(=O)N[C@@H](CCC(=O)O)C(=O)N[C@@H](CCC(=O)O)C(=O)N[C@@H](CC(C)C)C(=O)N[C@@H](CCC(N)=O)C(=O)N[C@@H](CCCNC(=N)N)C(=O)N[C@@H](Cc1ccc(O)cc1)C(=O)N[C@@H](Cc1ccc(O)cc1)C(=O)N[C@H](C(=O)N[C@@H](CCC(N)=O)C(=O)N[C@@H](CC(C)C)C(=O)N[C@@H](CCCNC(=N)N)C(=O)N[C@@H](Cc1c[nH]cn1)C(=O)N[C@@H](Cc1ccc(O)cc1)C(=O)N[C@@H](Cc1ccc(O)cc1)C(=O)N[C@@H](CC(N)=O)C(=O)N[C@@H](Cc1c[nH]c2ccccc12)C(=O)N[C@@H](CC(C)C)C(=O)N[C@H](C(=O)N[C@@H](CCCNC(=N)N)C(=O)N[C@@H](CCC(N)=O)C(=O)N[C@@H](CCCNC(=N)N)C(=O)N[C@@H](Cc1ccc(O)cc1)C(N)=O)[C@@H](C)O)C(C)C [Compound 59, N{alpha-4}-(3-methylbutanoyl)-N{epsilon-7}-(6-[(4S)-4-carboxy-4-(17-carboxyheptadecanamido)butanamido]hexanoyl)-[4A,6A,7K,9E,18Q,22V,23Q,28Y,30W,31L]-hPYY(4-36)] | 9.7 | 9.6 | 8.71
CC[C@H](C)[C@H](NC(=O)[C@H](CCC(=O)O)NC(=O)[C@H](CCC(=O)O)NC(=O)[C@@H]1CCCN1C(=O)[C@@H](NC(=O)[C@H](C)NC(=O)[C@H](CC(=O)O)NC(=O)[C@H](CCC(=O)O)NC(=O)[C@@H]1CCCN1C(=O)[C@@H]1CCCN1C(=O)[C@H](CCCCNC(=O)CCCCCNC(=O)CC[C@H](NC(=O)CCCCCCCCCCCCCCCCC(=O)O)C(=O)O)NC(=O)[C@H](CCC(=O)O)NC(=O)[C@@H]1CCCN1C(=O)[C@H](C)NC(=O)CC(C)C)[C@@H](C)O)C(=O)N[C@@H](CCC(N)=O)C(=O)N[C@@H](CCCNC(=N)N)C(=O)N[C@@H](Cc1ccc(O)cc1)C(=O)N[C@@H](Cc1ccc(O)cc1)C(=O)N[C@H](C(=O)N[C@@H](CO)C(=O)N[C@@H](CC(C)C)C(=O)N[C@@H](CCCNC(=N)N)C(=O)N[C@@H](Cc1c[nH]cn1)C(=O)N[C@@H](Cc1ccc(O)cc1)C(=O)N[C@@H](Cc1ccc(O)cc1)C(=O)N[C@@H](CC(N)=O)C(=O)N[C@@H](Cc1c[nH]c2ccccc12)C(=O)N[C@@H](CC(C)C)C(=O)N[C@H](C(=O)N[C@@H](CCCNC(=N)N)C(=O)N[C@@H](CCC(N)=O)C(=O)N[C@@H](CCCNC(=N)N)C(=O)N[C@@H](Cc1ccc(O)cc1)C(N)=O)[C@@H](C)O)C(C)C [Compound 28, N{alpha-4}-(3-methylbutanoyl)-N{epsilon-7}-(6-[(4S)-4-carboxy-4-(17-carboxyheptadecanamido)butanamido]hexanoyl)[4A,7K,9P,13T,17I,18Q,22V,28Y,30W,31L]-hPYY(4-36)] | >10.0 | >10.0 | 9.31
